Laboratory results from paper PMC4411898, “Impact of kinesin Eg5 inhibition by 3,4-dihydropyrimidin-2(1H)-one derivatives on various breast cancer cell features” (BMC Cancer, 2015).

Columns and labels:
MDA-MB-231 cells [1] = test: Apoptosis and necrosis assay (Annexin-V/PI flow cytometry), MDA-MB-231; assay type: cell-based, human; conditions: 72 h; 4m 1.0 mM, 4bt 0.8 mM, 4p 0.4 mM, 4bc 1.0 mM, 4x 0.8 mM
Method: For proliferation assays, cells were treated with IC50 concentrations of each compound. Adherent and floating cells were harvested at the same tube and pelleted by centrifugation at 300 g for 5 minutes and stained. Data acquisition of these two fractions put together was performed on a FACSCalibur flow cytometer using CellQuest software and analysed using the FloJo Software. Untreated control cells and DHPMs-treated for 72 h cell samples were stained with Annexin-V-FITC or Annexin-V-Alexa Fluor® 680 and propidium iodide according to the manufacturer’s instructions.

MDA-MB-231 cells [2] = test: MTT cell viability assay, MDA-MB-231; assay type: cell-based, human; conditions: for IC50: 72 h treatment, MTT, read-out: IC50 MDA-MB-231; for Effect on cell viability, MDA-MB-231: all concentrations tested 100 μM – 1.00 mM, 72 h
Method: (§1) Absorbance readings were measured by a spectrophotometer. Cell viability was normalized to control (vehicle only).

MCF-7 cells [3] = test: DAPI staining and transmission electron microscopy analysis; assay type: cell-based, human; conditions: MCF-7, 4p 0.4 mM, 24 h (DAPI) or 48 h (TEM)
Method: Aliquots of 8 × 10^5 MCF-7 cells were seeded in 12-well plates and ultra-structural analysis performed on controls or after 48 h of treatment with 4p (0.4 mM). Cells were washed twice with PBS and fixed overnight with glutaraldehyde (2.5%) at 4°C. Cells were subsequently washed with 0.1 M sodium cacodylate buffer (pH 7.2) and post-fixed in 1% osmium tetroxide and 0.8% potassium ferricyanide (10 mM CaCl2 in 0.2 M sodium cacodylate buffer). Samples were washed twice with 0.1 M sodium cacodylate buffer (pH 7.2) and in-block staining was performed for 16 h with 0.5% uranyl acetate at 4°C. Cells were dehydrated in a graded acetone series (50-100%) and embedded in Spurr resin.
Cells were analyzed under a laser scanning confocal microscope. B, MCF-7 cells control or treated with 4p (0.4 mM) for 24 h had their nucleus stained with DAPI (left panels) or were processed and analyzed by Transmission Electron Microscopy after exposure to 4p (0.4 mM) for 48 h (right panels).

MCF-7 cells [4] = test: MTT cell viability assay, MCF-7; assay type: cell-based, human; conditions: for IC50: 72 h treatment, MTT, read-out: IC50 MCF-7; for Effect on cell viability, MCF-7: all concentrations tested 100 μM – 1.00 mM, 72 h
Method: as §1

HUVEC cells = test: HUVEC tube formation assay; assay type: cell-based, human; conditions: 11 h; 30 μM, IC50 or 300 μM, mainly 300 μM
Method: The anti-angiogenic potential of DHPMs was tested using an in vitro Angiogenesis Assay Kit according to the manufacturer’s instructions. […] These plates were incubated for 11 hours at 37°C, in 5% CO2. Wells were subsequently photographed using an inverted light microscope at 20x magnification and tube formation analyzed. Seven fields per group of 3 independent experiments were quantified by pattern recognition according to manufacturer’s instructions.

Kinesin Eg5 = target: T1, Kinesin Eg5 (Homo sapiens, UniProt P52732); test: Kinesin inhibition assay (Kinesin ELIPA); assay type: biochemical; conditions: compound at its IC50, 30 min, 360 nm
T1 sequence (P52732 1-1056): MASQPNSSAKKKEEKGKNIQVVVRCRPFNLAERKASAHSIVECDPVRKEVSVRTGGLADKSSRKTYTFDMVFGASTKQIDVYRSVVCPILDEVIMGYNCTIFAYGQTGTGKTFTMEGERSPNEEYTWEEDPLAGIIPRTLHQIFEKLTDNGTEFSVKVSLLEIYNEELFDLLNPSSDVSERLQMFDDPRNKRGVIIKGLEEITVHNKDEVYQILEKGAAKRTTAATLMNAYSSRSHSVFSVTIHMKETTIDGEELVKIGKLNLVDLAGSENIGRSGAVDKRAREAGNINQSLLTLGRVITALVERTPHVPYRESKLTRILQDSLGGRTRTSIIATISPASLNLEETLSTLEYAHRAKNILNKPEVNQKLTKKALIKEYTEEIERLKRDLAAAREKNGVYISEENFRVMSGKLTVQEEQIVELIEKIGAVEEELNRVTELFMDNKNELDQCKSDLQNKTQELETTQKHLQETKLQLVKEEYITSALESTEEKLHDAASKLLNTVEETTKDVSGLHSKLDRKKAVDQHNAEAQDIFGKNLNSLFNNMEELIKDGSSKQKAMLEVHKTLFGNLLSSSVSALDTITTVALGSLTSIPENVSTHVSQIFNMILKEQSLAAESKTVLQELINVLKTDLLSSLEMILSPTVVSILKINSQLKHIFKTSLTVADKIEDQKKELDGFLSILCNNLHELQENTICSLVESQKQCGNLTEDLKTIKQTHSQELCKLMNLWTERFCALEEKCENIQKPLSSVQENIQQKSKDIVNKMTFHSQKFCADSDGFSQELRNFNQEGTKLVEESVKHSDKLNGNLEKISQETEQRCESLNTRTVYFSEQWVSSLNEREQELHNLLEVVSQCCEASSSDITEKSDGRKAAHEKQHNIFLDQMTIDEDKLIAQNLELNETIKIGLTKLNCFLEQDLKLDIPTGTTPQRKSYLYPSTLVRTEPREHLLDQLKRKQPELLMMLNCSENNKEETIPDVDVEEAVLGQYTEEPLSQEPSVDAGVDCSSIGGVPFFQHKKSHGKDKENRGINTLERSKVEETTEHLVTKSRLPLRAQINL
Method: Kinesin inhibition assays were performed using Kinesin ELIPA (Enzyme Linked Inorganic Phosphate Assay). Reactions were conducted in 96-well plates according to the manufacturer’s recommendations (Kinesin ELIPA Biochem Kit – BK060).
Reactions were measured in spectrophotometer set in kinetic mode and an absorbance wavelength of 360 nm.

MCF-7 cells [5] = test: CFSE proliferation assay, MCF-7; assay type: cell-based, human; conditions: 72 h, IC50 concentration of each compound
Method: (§2) For proliferation assays, cells were treated with IC50 concentrations of each compound. Adherent and floating cells were harvested at the same tube and pelleted by centrifugation at 300 g for 5 minutes and stained. Data acquisition of these two fractions put together was performed on a FACSCalibur flow cytometer using CellQuest software and analysed using the FloJo Software. […] After adhesion, cells were treated with DHPMs or maintained in culture medium only (control) for 72 h. The percentage of proliferative cells was calculated based on the CFSE fluorescence profile analysis of the tested samples compared to that of the fixed undivided control cells (treated with 10 μM of colchicine) using the FlowJo software.

MDA-MB-231 cells [6] = test: CFSE proliferation assay, MDA-MB-231; assay type: cell-based, human; conditions: 72 h, IC50 concentration of each compound
Method: as §2

| Structure (SMILES) | Cell death by apoptosis, % of MDA-MB-231 cell population (MDA-MB-231 cells [1]) | IC50 (MDA-MB-231 cells [2]) [µM] | Effect on cell viability, MDA-MB-231 (MDA-MB-231 cells [2]) | Cell phenotype by DAPI staining and TEM (MCF-7 cells [3]) | IC50 (MCF-7 cells [4]) [µM] | Effect on cell viability, MCF-7 (MCF-7 cells [4]) | HUVEC tube formation (pattern recognition / morphology) (HUVEC cells) | Inhibition of kinesin Eg5 activity in vitro (in words) (Kinesin Eg5) | Inhibition of cell proliferation, MCF-7 (MCF-7 cells [5]) | Inhibition of cell proliferation, MDA-MB-231 (MDA-MB-231 cells [6]) |
| --- | --- | --- | --- | --- | --- | --- | --- | --- | --- | --- |
| CCOC(=O)C1=C(C)NC(=S)NC1c1ccccc1O (stereo not shown) [Compound 4p] | less pronounced manner | 68.4 | significant decrease in cell viability | mitotic catastrophe phenotype | 87.5 | significant decrease in cell viability | more pronounced anti-angiogenic morphological aspect | not statistically significant | Approximately 50% | Approximately 50% |
| CC(=O)C1=C(C)NC(=O)NC1c1ccccc1[N+](=O)[O-] (stereo not shown) [Compound 4x] | less pronounced manner | 237 | significant decrease in cell viability | – | 276 | significant decrease in cell viability | – | not statistically significant | – | – |
